Laboratory results taken from patent EP4596561A1, “PHOSPHORUS-CONTAINING COMPOUND, PHARMACEUTICAL COMPOSITION AND USE THEREOF” (Suzhou Genhouse Bio Co., Ltd., priority 2022, dated 2024).
Where two headings read alike, the source gives them in different places.

Key:
[1] = Pharmacokinetic test in rats; assay type: in vivo; settings: rat, plasma, SD rats; for bioavailability: PO 10 mg/kg vs IV 2 mg/kg
Procedure: In this experimental example, the pharmacokinetic behavior of the test compounds after administration by intravenous injection (IV) and oral gavage (PO) in SD rats was tested. Preparation of formulations for administration referred to the low-dose pharmacokinetic test in mice.
On the day of administration, rats were weighed for actual body weight, and the administration volume was calculated. Each compound was tested in two groups with 3 rats in each group; one group was subjected to administration by single intravenous injection, and the other group was subjected to administration by single gavage. The whole blood samples were collected via the jugular vein at prescribed time points (0.25 h, 0.5 h, 1 h, 2 h, 4 h, 8 h, and 24 h after administration). After the blood sample collection, the samples were immediately transferred to labeled commercial sample tubes containing K2-EDTA (0.85-1.15 mg), followed by centrifugation (3200× g, 4 °C, 10 min) and plasma collection. The plasma was transferred to a pre-cooled centrifuge tube, frozen in dry ice, and then stored in an ultra-low temperature freezer at -60 °C or lower until the LC-MS/MS analysis was performed.
Plasma concentrations were determined by the LC-MS/MS method. Plasma drug concentration data for the compounds were processed using a non-compartmental model in the WinNonlin Version 6.3 (Pharsight, Mountain View, CA) pharmacokinetic software. The relevant pharmacokinetic parameters were calculated by a linear-log trapezoidal method.

[2] = Saturated solubility in FaSSIF solution; assay type: physicochemical; settings: room temperature, stirred overnight
Procedure: Efficacy Experimental Example 9: Test of Saturated Solubility of Samples in FaSSIF Solution
About 0.21 g of sodium hydroxide, about 2.24 g of sodium dihydrogen phosphate dihydrate, and 3.09 g of sodium chloride were weighed out and dissolved in 500 mL of water, and after dissolution, the pH was adjusted to 6.5 with 1 N sodium hydroxide or 1 N hydrochloric acid.
112 mg of FaSSIF solid was weighed out and placed in a 50 mL volumetric flask, and the buffer described above was added for dissolution. The resulting solution was diluted to volume, mixed well, and left to stand at room temperature for 2 h or more.
Test sample: About 1 mg of the test sample was taken, and 1 mL of FaSSIF solution was added. The mixture was stirred at room temperature overnight and centrifuged, and the supernatant was collected and injected for analysis.
Reference sample solution: About 1.5 mg of the test sample was precisely weighed out and placed in a 50 mL volumetric flask, and DMF was added for dissolution. The resulting solution was diluted to volume and mixed well.
The peak of the main component of the reference sample and the peak of the test sample with the same retention time were integrated, and the concentration thereof in the FaSSIF solution was calculated according to the external standard method.

[3] = tested on: YAP-TEAD transcription complex; assay: YAP-TEAD reporter gene assay (dual luciferase, stably transfected 293T cells); assay type: cell-based; settings: Homo sapiens, HEK-293T
[4] = 293T reporter cells, 24 h of drug treatment, read-out: IC50

Row | IC50 [3, 4] [nM] | SMILES | AUC(0-t) ([1]; IV 2 mg/kg) [µM·h] | MRT ([1]; IV 2 mg/kg) [h] | clearance ([1]; IV 2 mg/kg) [mL/min/kg] | half-life ([1]; IV 2 mg/kg) [h] | AUC(0-t) ([1]; PO 10 mg/kg) [µM·h] | MRT ([1]; PO 10 mg/kg) [h] | half-life ([1]; PO 10 mg/kg) [h] | bioavailability [1] [%] | FaSSIF(pH = 6.5) [2] [ug/mL] | IC50 ([3]; 24 h) [nM]
1 | – | CP(C)(=O)c1ccc2c(c1)c1ccccc1n2-c1ccc(C(F)(F)F)cc1 [Example 1] | 113 | 46.3 | 0.333 | 32.4 | 605 | 69.9 | 66.9 | 107 | >950.5 | 39.7
2 | 57.1 | CP(C)(=O)c1ccc2c(c1)c1cccnc1n2-c1ccc(C(F)(F)F)cc1 [Example 5] | – | – | – | – | – | – | – | – | 781.7 | –
3 | – | CP(C)(=O)c1ccc2c(Oc3ccc(C(F)(F)F)cc3)cccc2c1 [Example 7] | 44.5 | 20.5 | 2 | 15.7 | 308 | 28.5 | 19.5 | 142 | 1499.5 | 4.09
4 | – | Cn1cnc(-c2cc(P(C)(C)=O)cnc2Nc2ccc(C(F)(F)F)cc2)c1 [Example 8] | 8.89 | 7.8 | 9 | 6.2 | 59.3 | 20.6 | 14.7 | 133 | 433.97 | 42.4
5 | 100 | CP(C)(=O)c1ccc(Nc2ccc(C(F)(F)F)cc2)c(-c2ccccn2)c1 [Example 10] | 21.7 | 26.5 | 3 | 19 | 152 | 25.7 | 17.8 | 140 | 89.75 | –
6 | 92.1 | CP(C)(=O)c1ccc(Nc2ccc(C(F)(F)F)cc2)c(-c2ncccn2)c1 [Example 12] | 34.9 | 76.3 | 1.17 | 54.2 | 114 | 24.9 | 21.8 | 65 | – | –
7 | – | Cn1cnc(-c2cc(P(C)(C)=O)ccc2Nc2ccc(C(F)(F)F)cc2)c1 [Example 14] | 16.9 | 10.2 | 4.67 | 8.1 | 83.2 | 15 | 10.9 | 98 | 674.6 | 20.2
8 | – | CP(C)(=O)c1cnc(Nc2ccc(C(F)(F)F)cc2)c(-c2cn3c(n2)CCC3)c1 [Example 22] | 6.42 | 7.6 | 11 | 5.8 | 32.2 | 9.6 | 7.3 | 95 | 337.6 | 13.6
9 | – | Cc1ccc(Oc2ccc(C(F)(F)F)cc2)c2ccc(P(C)(C)=O)cc12 [Example 24] | – | – | – | – | – | – | – | – | 193.3 | 135
